Laboratory results: patent publication US12630523B2, “Isoquinoline derivatives for use as antiviral and antitumour agents” (priority 2021, dated 2026)
Read-outs that look alike come from different tables or passages of the source.

Tests used:
[1] = target: T1, HPV16 E7 protein (Human papillomavirus type 16, UniProt P03129); format: cell-based; conditions: CaSki cells; for % Dad: adjusted degradation, CHX steady state set to 100% degradation
T1 construct: endogenous in cells; host or cells: CaSki cells (HPV16-positive cervical carcinoma)
Protocol: For intracellular antibody labeling, 0.5×10^6 cells are washed once with 1 ml ice-cold PBS. Cells are centrifuged at 350×g for 5 minutes at 4° C. and then fixed in 1% paraformaldehyde (1 ml/10^6 cells) for 20 minutes at 4° C. Cells are washed with 1 ml ice-cold PBS and centrifuged at 350×g for 5 minutes at 4° C. To permeabilize cells, 100% ice-cold methanol (1 ml/10^6 cells) is added to the cells and incubated for 20 minutes at 4° C. followed by centrifugation at 350×g for 5 minutes at 4° C. Cells are washed with 1 ml ice-cold PBS, centrifuged at 350×g for 5 minutes at 4° C. and resuspended in 0.1% saponin+2% FBS in PBS (ice-cold). Cells are left for 20-30 minutes at room temperature to reduce the background signal and then centrifuged at 350×g for 5 minutes at 4° C. The primary antibody (mAb_HPV16E7-1 (VS13004); concentration 1 μg/μl) is diluted in 0.1% saponin+2% FBS (dilution 0.25 μg/50 μl of incubation buffer per 1×10^6 cells (5 ng/μl)). Cells are incubated with primary antibody for 30 minutes at room temperature, washed with 0.1% saponin+2% FBS and centrifuged at 350×g for 5 minutes at 4° C. The secondary antibody (FITC conjugated goat anti-mouse IgG1-IgM, BD, cat. #555988) is diluted in 0.1% saponin+2% FBS (dilution 1:50). Cells are incubated with secondary antibody for 30 minutes at room temperature, washed once with 0.1% saponin+2% FBS, once with PBS and centrifuged at 350×g for 5 minutes at 4° C.
Cells are resuspended in 700 μl PBS prior to CF analysis with a Beckman Coulter FC 500 MPL, (excitation laser 488 nm). Data analysis is done using the Beckman Coulter software packages MXP for acquisition and CXP for data analysis which includes MFI calculation. Detection of HPV-E7 protein expression is based on morphology back-gating of FL1 histogram (logarithmic scale) with gating for dot plot FS (Forward Scatter) log/SS (Sideward Scatter) log and gating for histograms SS log.
In order to define the level of E7 protein expression and to study the extent of E7 protein steady state level reduction in E7 expressing cells in the presence of various compounds, FC analysis is implemented using the intracellular antibody labeling procedure for monoclonal antibodies to HPV E7. E7 signal intensities are analyzed from the obtained FL1 histograms at logarithmic scale. The FL1 single histogram graph represents the variation in the mean fluorescence intensity (MFI) channel for cells treated with selected compounds compared to cells not incubated with primary antibodies but incubated with secondary, which allows to test for auto-fluorescence, and non-compound treated cells as controls. Non-primary antibody-stained cells are used to set the acquisition parameters to zero. Decrease of the mean fluorescence intensity channel corresponds to a decrease in the expression of HPV16 E7 protein. Degradation of E7 in cells is calculated as percent (%) reduction in MFI(x-Me) using the following formulas: % Drel=(T−C)/T*100; i) relative degradation: % Dad=(T−C)/(T−CHX)*100; ii) adjusted degradation: • Drel=relative degradation, • Dad=adjusted degradation assuming CHX % Drel=100; • T=MFI of non-treated cells; • C=MFI of compound treated cells; • CH=MFI of cycloheximide (CHX) treated cells;
For comparison within one experiment i) the % relative degradation (Drel) is sufficient, whereas for comparison between two or more experiments ii) the adjusted degradation (Dad) is used and CHX steady state is set to a 100% degradation parameter.
1×10^6 freshly seeded CaSki cells (ATCC CRL-7915), are grown in 10 cm diameter cell culture dishes in RPMI1640, 10% FCS medium at 37° C. 5% CO2 overnight and then incubated in the presence of 10 μM Cycloheximide (CHX) 10 μM OC246 or with vehicle alone for four hours at 37° C. 5% CO2. Following this E7 protein is assessed by cytofluorimetric analysis using intracellular HPV16 E7 antibody labeling. […]

[2] = test system: human cervical carcinoma (CaSki) xenograft; assay: CaSki high risk HPV16 human cervical carcinoma xenograft model; format: in vivo, nude mice; conditions: for % TGI (Day 44): percentage tumor growth inhibition with respect to controls / Δ% on Day 44 / Δ% Body Weight: OC246/OC974 os 2 mg/kg/day; for % TGI (Day 44): percentage tumor growth inhibition with respect to controls: 4 × week; for % TGI (Day 44): percentage tumor growth inhibition with respect to controls / Tumor Volume Day 44 (mm^3 ± SD): 3 cycles, CDDP i.v. q7d × 3, 6 mg/kg; for Δ% on Day 44 / Δ% Body Weight: CDDP i.v. 6 mg/kg; for Δ% on Day 44: control 100; for Tumor Volume Day 44 (mm^3 ± SD): OC246/OC974 os daily 4 × week, 2 mg/kg/day, control 1099 ± 503; for Δ% Body Weight: between first day of treatment (day 20) and Day 44, control +4.9
Protocol: The aim of this study was to assess the in vivo efficacy of OC246 and OC974 on a human cervical carcinoma (CaSki) xenograft model in nude mice. OC246 and OC974 were administered oral once daily for four times with three days off, for three cycles at 2 mg/kg/dose. Cisplatin (CDDP) was used as a reference compound with three weekly intravenous (q7dx3) administrations of 6 mg/kg.

[3] = test system: CaSki (ATCC CRM-CRL-1550); assay: Monolayer assay using Sulphorhodamine B (SRB) staining, CaSki; format: cell-based; conditions: Homo sapiens, Ca-Ski
How it was run: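 After 24 h recovery, 10.000–30.000 cells/well treated 72 h with compound at 9 concentrations. Cells TCA-fixed (10% final) 1 h at 4 °C, SRB-stained, optical density read at 540 nm; EC50 for growth inhibition from non-linear regression of log concentration versus % T/C.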

[4] = test system: SARS-CoV-2 isolate BetaCov/Belgium/GHB-03021/2020; assay: microbe, parasite or virus in culture; format: cell-based; conditions: for inhibition at 1.25 µM: Severe acute respiratory syndrome coronavirus 2, 1.25 μM (non-toxic compound concentration), n4; for SARS-CoV-2 antiviral activity, mono treatment or combination (FIG. 10): Vero E6 cells, VSP035 10-0.625 μM

T1 sequence (P03129 whole entry): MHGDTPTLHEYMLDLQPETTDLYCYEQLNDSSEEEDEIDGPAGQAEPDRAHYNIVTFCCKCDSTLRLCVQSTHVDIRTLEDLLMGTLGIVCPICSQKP

SMILES | % Dad [1] | % TGI (Day 44): percentage tumor growth inhibition with respect to controls [2] | Δ% on Day 44 [2] | Tumor Volume Day 44 (mm^3 ± SD) [2] | Δ% Body Weight [2] | EC50 ([3]; read-out: EC50 mean [nM]) | inhibition at 1.25 µM [4] | % Drel (relative degradation) ([1]; 10 μM, four hours) | % Dab (adjusted degradation) ([1]; 10 μM, four hours, CHX set to 100) | MFI (mean fluorescence intensity) of E7 signal ([1]; 10 μM, four hours, vehicle T 8.06) | EC50 ([3]; 72 h) | SARS-CoV-2 antiviral activity, mono treatment or combination (FIG. 10) [4] | SARS-CoV-2 antiviral activity, mono treatment or combination (FIG. 10) ([4]; listed as VS035)
CN1CCC(CN2C(=O)c3ccccc3[C@@H](C(=O)Nc3cccc(N4CCN(C)CC4)c3)[C@@H]2c2ccc(C(F)(F)F)cc2)CC1 (racemic) [OC974, (3R,4R)- and (3S,4S)-N-[3-(4-methylpiperazin-1-yl)phenyl]-2-[(1-methylpiperidin-4-yl)methyl]-1-oxo-3-[4-(trifluoromethyl)phenyl]-3,4-dihydroisoquinoline-4-carboxamide] | 68% | 63.9% | 23% | 307 ± 171 mm^3 | +1.1% | 1550 nM | 54.3% |  |  |  |  |  | 
Cc1ccc(CN2C(=O)c3ccccc3[C@H](C(=O)Nc3cccc(N4CCN(C)CC4)c3)[C@@H]2c2ccc(C(F)(F)F)cc2)cc1 [OC246, N-[3-(4-methylpiperazin-1-yl)phenyl]-2-[(4-methylphenyl)methyl]-1-oxo-3-[4-(trifluoromethyl)phenyl]-1,2,3,4-tetrahydroisoquinoline-4-carboxamide] | 56% | 66.6% | 27% | 371 ± 153 mm^3 | +5.5% | 3050 nM | 45.7% | 43.79% | 55.59% | 4.53 | 2890 nM |  | 
CN1CCC(CN2C(=O)c3ccccc3[C@H](C(=O)Nc3cccc(N4CCN(C)CC4)c3)[C@H]2c2ccc(C(F)(F)F)cc2)CC1 [VSP035, (3S,4S)-N-[3-(4-methylpiperazin-1-yl)phenyl]-2-[(1-methylpiperidin-4-yl)methyl]-1-oxo-3-[4-(trifluoromethyl)phenyl]-1,2,3,4-tetrahydroisoquinoline-4-carboxamide] |  |  |  |  |  | 3750 nM | 72.4% |  |  |  |  | moderate | Robust antiviral activities
